According to patent US7897723B2, “ErbB receptor-derived peptide fragments” (Københavns Universitet, priority 2006, dated 2011):

Assays:
ErbB1 [1] = biological target: T1, ErbB1 (Homo sapiens, UniProt P00533); assay: ErbB receptor phosphorylation, NR6 wtEGFR cells; type: cell-based; design: expressed in transfected cells; host or cells: NR6 fibroblastoid cells (NR6 wtEGFR); details: 10 ng/ml EGF for 10 min, immunoblotting (FIG. 7)
Procedure: The cells employed for this assay were NR6 wtEGFR cells, which are fibroblastoid cells stably transfected with ErbB1, and human head and neck tumor-derived HN5 cell. Confluent NR6 wtEGFR or HN5 cells were treated with peptide in the indicated concentrations for 30 min, then stimulated with 10 ng/ml EGF (Sigma-Aldrich, St. Louis, Mo., USA) for 10 min. Cells were lysed in lysis buffer (1% (v/v) Triton X-100, 150 mM NaCl, 10 mM Tris pH 7.4, 1 mM EDTA, 1 mM EGTA, 0.5% (v/v) NP-40, phosphatase inhibitors (Phosphatase Inhibitor Cocktail Set II from Calbiochem, La Jolla, Calif., USA) and protease inhibitors (Complete™ Protease Inhibitor Cocktail from Boehringer Mannheim Biochemica, Mannheim, Germany)), and cleared lysate samples containing equal amounts of total protein (as determined by a bicinchoninic acid assay (Pierce, Rockford, Ill., USA)) were subjected in duplicates to 4-12% SDS-PAGE and immunoblotting. […] The intensity of bands was quantified using densitometric analysis employing the software package GeneTools (Syngene, Cambridge, UK).
NR6 wtEGFR cells (a fibroblastoid cell line stably transfected with ErbB1) were treated with peptide in the indicated concentrations for […], then stimulated with 10 ng/ml EGF for 10 min. […] The intensity of bands was quantified using densitometric analysis employing the software package GeneTools (Syngene, Cambridge, UK).

ErbB1 [2] = biological target: T1, ErbB1; assay: ErbB receptor phosphorylation, HN5 cells; type: cell-based; design: the ErbB1 overexpressing human head and neck cancer cell line HN5; endogenous in cells; host or cells: HN5 human head and neck cancer cells; details: 100 μM peptide for 30 min, 10 ng/ml EGF for 10 min (FIG. 8)
Procedure: The cells employed for this assay were NR6 wtEGFR cells, which are fibroblastoid cells stably transfected with ErbB1, and human head and neck tumor-derived HN5 cell. Confluent NR6 wtEGFR or HN5 cells were treated with peptide in the indicated concentrations for 30 min, then stimulated with 10 ng/ml EGF (Sigma-Aldrich, St. Louis, Mo., USA) for 10 min. Cells were lysed in lysis buffer (1% (v/v) Triton X-100, 150 mM NaCl, 10 mM Tris pH 7.4, 1 mM EDTA, 1 mM EGTA, 0.5% (v/v) NP-40, phosphatase inhibitors (Phosphatase Inhibitor Cocktail Set II from Calbiochem, La Jolla, Calif., USA) and protease inhibitors (Complete™ Protease Inhibitor Cocktail from Boehringer Mannheim Biochemica, Mannheim, Germany)), and cleared lysate samples containing equal amounts of total protein (as determined by a bicinchoninic acid assay (Pierce, Rockford, Ill., USA)) were subjected in duplicates to 4-12% SDS-PAGE and immunoblotting. One membrane was probed with anti-phospho-EGFR (phosphotyrosine 1068) antibody (Cell Signaling Technology, Danvers, Mass., USA), the other with anti-EGFR antibody (Cell Signaling Technology). Detection was carried out using horseradish peroxidase (HRP)-conjugated secondary antibodies (DAKO, Denmark) and enhanced chemiluminiscence (Pierce). The intensity of bands was quantified using densitometric analysis employing the software package GeneTools (Syngene, Cambridge, UK).

HN5 cells = assay: Cell viability / cell growth (MTS staining); type: cell-based, human; details: HN5 cells
Procedure: 2000 HN5 cells per well were seeded in a 96 well plate in full medium (containing 10% fetal calf serum) or starvation medium (serum-free). After 12 hours of incubation, peptides or ErbB1 kinase inhibitor PD153035 (Calbiochem) and/or EGF (Sigma-Aldrich) were added in the concentrations indicated in figures. Cells were grown for 72 hours, then 20 μl MTS One Solution Reagent (Promega, Madison, Wis., USA) were added per 100 μl culture medium in each well, and the plates were incubated for 1-2 hours at 37° C., followed by absorbance measurements at 490 nm.

L929 cells [3] = assay: Cell motility assay (time-lapse video recording); type: cell-based
Procedure: Subconfluent L929 cells were infected with Ad5.CMV-GFP virus according to the manufacturer instruction (Clontech). 24 h after transfection, cells were seeded at a density of 4×10^3 cells/cm^2 and grown for 24 h. Cells were then treated with the indicated concentration of peptide and EGF, and cell positions were recorded every 15 min at 25 fixed positions in each culture for 4 hours using automatic time-lapse video recording. The workstation employed comprised an Eclipse TE300 inverted microscope (Nikon, Japan) equipped with a heated, movable, computer controlled microscope stage. Recordings were performed using the PRIGRA software (developed at the Protein Laboratory, Copenhagen, Denmark).
Analysis of individual cell motility was performed using an automatic procedure for single cell motility evaluation. Briefly, automatic marking of cell positions in consecutive video frames was used for determination of the migration tracks of the cells during the whole recording period. The obtained cell coordinate data were used for the calculation of motility parameters by means of the ‘complex overlapping’ method. Briefly, the mean squared cell displacement, ? d^2 ? , was calculated as the Euclidean distance between two points corresponding to the initial and final position of the cell. The rate of diffusion, R, was calculated by fitting the curve of ? d^2 ? plotted against time to the equation ? d^2(ti) ? =R(τ−P(1−e^(−τ/P))), • where ti is the time interval of interest, τ is the time interval between observations, i.e. 15 min, and P is the persistence time in direction (28). The mean cell speed, Sτ, was calculated as the mean cell displacement taking place between discrete observations ( ? dτ ? ) divided by the time interval between discrete observations (τ), according to the equation:
[formula] • The mean cell-path-length, ? L ? , for a sample of a population of cells at a given time of observation, was calculated as:
[formula] • The locomotive index, LI, was calculated as the ratio of the mean cell displacement and the mean cell-path-length:
[formula] LI was used as a measure of the directional persistence of the cells.

L929 cells [4] = assay: Cell proliferation (BrdU incorporation); type: cell-based
Procedure: 2000 L929 cells (ECACC no: 85011425) per well were seeded in a 96 well plate in full medium (containing 10% foetal calf serum) or starvation medium (serum-free). Peptides, ErbB1 kinase inhibitor PD153035 (Calbiochem), and EGF (Sigma-Aldrich) were added immediately after seeding of the cells (for experiments done in full serum) or after 8 hours of incubation (for experiments done in starvation medium) in the concentrations indicated in figures. Cells were grown for 6 hours, then 10 μM bromodeoxyuridine (BrdU) was added, and cells were grown for additional 18 hours. Then, BrdU incorporation in the cells was assayed using the Biotrak ELISA System, version 2 from Amersham Biosciences Europe GmbH (Buckinghamshire, UK) following the manufacturer's protocol.

In the case of “LVYNKLTFQLEPNPHTK (Inherbin 3 peptide) [Inherbin3]”, the “effect on EGF-induced ErbB1 phosphorylation” value (ErbB1 [1]) is reported as “inhibited EGF-induced ErbB1 phosphorylation significantly”, the “effect on EGF-induced ErbB1 phosphorylation” value (ErbB1 [2]) is reported as “significantly inhibited EGF-induced ErbB1 phosphorylation” and the “effect on serum-induced cell growth” value (HN5 cells; full medium containing 10% serum (FIG. 6B)) is reported as “inhibited serum-induced cell growth”. For the same sequence, the “inhibition of the EGF-induced increase in cell growth” value (HN5 cells; starvation medium, EGF-stimulated, 3 days, MTS (FIG. 6A)) was about 35%, the “effect on basal cell growth” value (HN5 cells; starvation medium, without EGF-stimulation (FIG. 6A)) was “no effect on the basal cell growth” and the “effect on mean cell speed” value (L929 cells [3]; L929 cells (FIG. 5C)) was “did not significantly affect the mean cell speed”. The “effect on locomotive index, LI” value (L929 cells [3]; L929 cells (FIG. 5D)) was “reflected the changes seen in rate of diffusion”, the “effect on rate of diffusion, R” value (L929 cells [3]; L929 cells, absence of EGF, peptide dose 10 μM (FIG. 5B)) was “stimulated the rate of diffusion to the level of the EGF-induced response” and the “effect on EGF-induced increase in rate of diffusion, R” value (L929 cells [3]; L929 cells, with EGF (FIG. 5B)) was “significantly inhibited”. For the same sequence, the “effect on EGF-induced increase in rate of diffusion, R” value (L929 cells [3]; L929 cells, with EGF, peptide dose 40 μM (FIG. 5B)) was “completely blocked the EGF-induced increase in rate of diffusion”, the “effect on EGF-induced cell proliferation” value (L929 cells [4]; L929 cells, full medium, BrdU incorporation (FIG. 2, FIG. 3)) was “able to inhibit EGF-induced cell proliferation significantly” and the “inhibition of the EGF-induced effects” value (L929 cells [4]; summary for cell proliferation, cell motility and ErbB1 phosphorylation in cells with a lower ErbB1 expression level) was about 100%.
